Laboratory results as given in US20190100534A1, “Cephem Compounds with Latent Reactive Groups” (Gladius Pharmaceuticals, Inc., priority 2017, published 2019).

Columns and labels:
Assay type in all cases: cell-based
[1] = tested on: Isogenic E. coli J58 strain carrying TEM-26; test: MIC determination, isogenic E. coli strains; details: Escherichia coli, 18 h, read-out: Mimimum Inhibitory Concentrations, TEM-26
Summary of the method: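 Broth microdilution in cation-adjusted Mueller-Hinton broth with 20 μM apo-transferrin, compound […] in twofold steps, inoculum from 0.5 McFarland suspension. E. coli J53 transformed with pBC-SK(+) encoding TEM-26; 18 h at 37° C, MIC as lowest concentration giving a clear well.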

[2] = tested on: Isogenic E. coli J58 strain carrying KPC-2; test: MIC determination, isogenic E. coli strains; details: Escherichia coli, 18 h, read-out: Mimimum Inhibitory Concentrations, KPC-2
Summary of the method: (§1)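 Broth microdilution in cation-adjusted Mueller-Hinton broth with 20 μM apo-transferrin, compound at 64 down to […], inoculum set to 0.5 McFarland. E. coli J53 transformed with pBC-SK(+) carrying the synthetic beta-lactamase gene was used. Plates were incubated 18 h at 37 °C; MIC is the lowest concentration giving a clear well.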

[3] = tested on: Isogenic E. coli J58 strain carrying KPC-3; test: MIC determination, isogenic E. coli strains; details: Escherichia coli, 18 h, read-out: Mimimum Inhibitory Concentrations, KPC-3
Summary of the method: as §1

[4] = tested on: Isogenic E. coli J58 strain carrying CTX-M-14; test: MIC determination, isogenic E. coli strains; details: Escherichia coli, 18 h, read-out: Mimimum Inhibitory Concentrations, CTX-M-14
Summary of the method: (§2)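 Isogenic E. coli J53 carrying plasmid-encoded CTX-M-14 or CTX-M-15 (ampicillin-selected), standardized to 0.08-0.1 OD600, incubated overnight (18 h, 37° C.) in CAMH broth plus 20 μM apo-transferrin over 2-fold compound dilutions starting at 64 μg/mL. Lowest concentration with no visible growth recorded as MIC.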

[5] = tested on: Isogenic E. coli J58 strain carrying CTX-M-15; test: MIC determination, isogenic E. coli strains; details: Escherichia coli, 18 h, read-out: Mimimum Inhibitory Concentrations, CTX-M-15
Summary of the method: as §2

[6] = tested on: Isogenic E. coli J58 strain carrying SHV-1; test: MIC determination, isogenic E. coli strains; details: Escherichia coli, 18 h, read-out: Mimimum Inhibitory Concentrations, SHV-1
Summary of the method: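 MIC is the lowest compound concentration leaving a transparent well after overnight (18 h) incubation at 37 °C. The test strain was E. coli J53 expressing plasmid-borne SHV-1 beta-lactamase from pBC-SK(+), adjusted to 0.5 McFarland. Compounds were twofold serially diluted, starting at 64 μg/mL, in CAMH broth supplemented with 20 μM apo-transferrin.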

[7] = tested on: Isogenic E. coli J58 strain carrying NDM-1; test: MIC determination, isogenic E. coli strains; details: Escherichia coli, 18 h, read-out: Mimimum Inhibitory Concentrations, NDM-1
Summary of the method: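 E. coli J53 transformed with a pBC-SK(+) plasmid encoding NDM-1 was adjusted to 0.08-0.1 OD600. It was grown 18 h at 37° C in CAMH broth containing 20 μM apo-transferrin with twofold compound dilutions from 64 μg/mL. MIC was taken as the lowest concentration giving a transparent well.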

[8] = tested on: Isogenic E. coli J58 strain carrying IMP-1; test: MIC determination, isogenic E. coli strains; details: for MIC: Escherichia coli, 18 h, read-out: Mimimum Inhibitory Concentrations, IMP-1
Summary of the method: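 Broth microdilution in cation-adjusted Mueller-Hinton broth with 20 μM apo-transferrin, compound serially diluted two-fold from 64 μg/mL, against E. coli J53 carrying plasmid-borne IMP-1. Inoculum adjusted to 0.5 McFarland; plates incubated 18 h at 37° C. MIC taken as lowest concentration giving a clear well.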

E. coli J53 Alone = test: MIC determination, isogenic E. coli strains; details: for MIC: Escherichia coli, J53ALONE, 18 h, read-out: Mimimum Inhibitory Concentrations, J53 Alone; for Mimimum Inhibitory Concentrations, J53 Alone: Table 4-2, CAMH broth, 20 μM Apo-Transferrin, 37° C., 18 hours
Summary of the method: (§3)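 Broth microdilution in cation-adjusted Mueller-Hinton broth with 20 μM apo-transferrin, 2-fold compound series from 64 μg/mL. E. coli J53, alone or transformed with a pBC-SK(+) plasmid carrying the beta-lactamase gene (e.g. DHA-1), inoculated from 0.5 McFarland suspension; 18 h at 37° C; MIC = lowest concentration with clear well.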

[9] = tested on: Isogenic E. coli J58 strain carrying VIM-2; test: MIC determination, isogenic E. coli strains; details: for MIC: Escherichia coli, 18 h, read-out: Mimimum Inhibitory Concentrations, VIM-2
Summary of the method: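 E. coli J53 transformed with pBC-SK(+) plasmid carrying synthesized VIM-2 gene, grown in LB to OD600 >0.1, adjusted to 0.08–0.1 OD600 in CAMH broth.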

[10] = tested on: Pseudomonas aeruginosa PA-RR-(G8062859); test: MIC determination; details: Pseudomonas aeruginosa; PA-RR-(G8062859); CAMH broth, 20 μM Apo-Transferrin, 37° C., 18 hours; read-out: Minimum Inhibitory Concentrations, PA-RR-(G8062859)
Method: (§4) Sterile technique was used throughout these experiments. Suspensions of organisms were removed from storage (−80° C.) and partially thawed. Partially thawed organisms (1 μL) were inoculated into 3 mL sterile LB Broth in a sterile culture tube and capped, then cultured at 37° C. with shaking for 4-5 hours until the optical density at 600 nm (OD600) was greater than 0.1 on a single beam spectrophotometer.
(§5) The concentration of organisms was adjusted to 0.08-0.1 OD600 (0.5 McFarland units) by dilution with sterile cation-adjusted Meuller-Hinton (CAMH) broth. The suspensions were used within 30 minutes of preparation.
(§6) A stock solution was made of each test compound by measuring 6.4 mg of the compound on an analytical balance and dissolving it in DMSO (1 mL) to get a transparent solution. The solutions were stored at −20° C. and thawed prior to use.
(§7) Sterile CAMH broth (200 μL) containing 20 μM Apo-Transferrin was pipetted into the first row of 8 columns of a sterile, round-bottomed, transparent, 96-well microplate using an 8-channel pipette equipped with sterile tips. One hundred μL was pipetted into the wells of the remaining 11 rows.
(§8) With an 8-channel pipette equipped with sterile tips, 100 μL of the first row solution was transferred to the second row and mixed. The process was repeated for the second to third rows and continued through row 11. One hundred μL from row 11 was removed and discarded so that all 12 rows contained 100 μL. Row 12 contained no compound and rows 1-11 contained 64, 32, 16, 8, 4, 2, 1, 0.5, 0.25, 0.125, […] of a given compound.
(§9) Inoculant suspensions (0.5 μL) were added to the 12 wells of each column. The plates were then covered and incubated at 37° C. overnight for 18 hours.
(§10) For each organism the MIC was determined by identifying the transparent well with the lowest test compound concentration.

[11] = tested on: Pseudomonas aeruginosa (PA); test: MIC determination; details: Pseudomonas aeruginosa; PA; CAMH broth, 20 μM Apo-Transferrin, 37° C., 18 hours; read-out: Minimum Inhibitory Concentrations, PA
Method: as §4, §5, §6, §7, §8, §9, §10

[12] = tested on: Pseudomonas aeruginosa PA (URMC-3); test: MIC determination; details: Pseudomonas aeruginosa; PA (URMC-3); CAMH broth, 20 μM Apo-Transferrin, 37° C., 18 hours; read-out: Minimum Inhibitory Concentrations, PA (URMC-3)
Method: as §4, §5, §6, §7, §8, §9, §10

[13] = tested on: Pseudomonas aeruginosa PA-RR-(G7304100); test: MIC determination; details: Pseudomonas aeruginosa; PA-RR-(G7304100); CAMH broth, 20 μM Apo-Transferrin, 37° C., 18 hours; read-out: Minimum Inhibitory Concentrations, PA-RR-(G7304100)
Method: as §4, §5, §6, §7, §8, §9, §10

[14] = tested on: Pseudomonas aeruginosa PA (RR-1); test: MIC determination; details: Pseudomonas aeruginosa; PA (RR-1); CAMH broth, 20 μM Apo-Transferrin, 37° C., 18 hours; read-out: Minimum Inhibitory Concentrations, PA (RR-1)
Method: as §4, §5, §6, §7, §8, §9, §10

[15] = tested on: Pseudomonas aeruginosa PA-RR-(G7294437); test: MIC determination; details: Pseudomonas aeruginosa; PA-RR-(G7294437); CAMH broth, 20 μM Apo-Transferrin, 37° C., 18 hours; read-out: Minimum Inhibitory Concentrations, PA-RR-(G7294437)
Method: as §4, §5, §6, §7, §8, §9, §10

[16] = tested on: Isogenic E. coli J58 strain carrying DHA-1; test: MIC determination, isogenic E. coli strains; details: Escherichia coli, 18 h, read-out: Mimimum Inhibitory Concentrations, DHA-1
Summary of the method: as §3

SMILES | MIC [1] | MIC [2] | MIC [3] | MIC [4] | MIC [5] | MIC [6] | MIC [7] | MIC [8] | MIC (E. coli J53 Alone) | Mimimum Inhibitory Concentrations, J53 Alone (E. coli J53 Alone) | MIC [9] | MIC [10] | MIC [11] | MIC [12] | MIC [13] | MIC [14] | MIC [15] | MIC [16] | MICs for an E. coli strain carrying the gene for carbapenemase VIM-1, in words ([9]; review of Tables 4-1 and 4-2) | MICs for an E. coli strain carrying the gene for carbapenemase IMP-1, in words ([8]; review of Tables 4-1 and 4-2)
CC(C)(O/N=C(\C(=O)N[C@@H]1C(=O)N2C(C(=O)O)=C(C=Cc3ccc(C[N+]4(C)CCc5cc(O)c(O)cc5C4)cc3)CS[C@H]12)c1csc(N)n1)C(=O)O (mixture of isomers) [Compound 407, 2-(4-((E/Z)-2-((6R,7R)-7-((Z)-2-(2-aminothiazol-4-yl)-2-(((2-carboxypropan-2-yl)oxy)imino)acetamido)-2-carboxy-8-oxo-5-thia-1-azabicyclo[4.2.0]oct-2-en-3 yl)vinyl)benzyl)-6,7-dihydroxy-2-methyl-1,2,3,4-tetrahydroisoquinolin-2-ium] | 1 µg/mL | 8 µg/mL | 4 µg/mL | 1 µg/mL | 64 µg/mL | 0.5 µg/mL | > 64 µg/mL | 32 µg/mL | 0.13 µg/mL | 0.13 microgram/mL | 0.5 µg/mL | 0.06 µg/mL | 2 µg/mL | 0.25 µg/mL | 0.03 µg/mL | 4 µg/mL | 0.03 µg/mL |  |  | 
Cn1c[n+](Cc2ccc(C=CC3=C(C(=O)O)N4C(=O)[C@@H](NC(=O)/C(=N\OC(C)(C)C(=O)O)c5csc(N)n5)[C@H]4SC3)cc2)cc1C(=O)Nc1ccc(O)c(O)c1 (mixture of isomers) [Compound 411, 3-(4-((E/Z)-2-((6R,7R)-7-((Z)-2-(2-aminothiazol-4-yl)-2-(((2-carboxypropan-2-yl)oxy)imino)acetamido)-2-carboxy-8-oxo-5-thia-1-azabicyclo[4.2.0]oct-2-en-3-yl)vinyl)benzyl)-5-((3,4-dihydroxyphenyl)carbamoyl)-1-methyl-1H-imidazol-3-ium] | 8 µg/mL | 32 µg/mL | 8 µg/mL | 4 µg/mL | 0.5 µg/mL | 4 µg/mL | > 64 µg/mL | 64 µg/mL | 0.5 µg/mL | 0.5 microgram/mL | 2 µg/mL | 2 µg/mL | 8 µg/mL | 0.5 µg/mL | 1 µg/mL | 4 µg/mL | 1 µg/mL | 1 µg/mL |  | 
CC(C)(O/N=C(\C(=O)N[C@@H]1C(=O)N2C(C(=O)O)=C(C=Cc3ccc(C[N+]4(C)CCc5c(Cl)c(O)c(O)c(Cl)c5C4)cc3)CS[C@H]12)c1csc(N)n1)C(=O)O (mixture of isomers) [Compound 429, 2-(4-((E/Z)-2-((6R,7R)-7-((Z)-2-(2-aminothiazol-4-yl)-2-(((2-carboxypropan-2-yl)oxy)imino)acetamido)-2-carboxy-8-oxo-5-thia-1-azabicyclo[4.2.0]oct-2-en-3-yl)vinyl)benzyl)-5,8 dichloro-6,7-dihydroxy-2-methyl-1,2,3,4-tetrahydroisoquinolin-2-ium] |  | 4 µg/mL | 1 µg/mL |  |  | 0.25 µg/mL | > 64 µg/mL | ≤ 0.06 µg/mL | ≤ 0.06 µg/mL | ≤0.06 microgram/mL | ≤ 0.06 µg/mL | 0.5 µg/mL | 0.25 µg/mL | 0.5 µg/mL | ≤ 0.06 µg/mL | 0.25 µg/mL | ≤ 0.06 µg/mL | 0.25 µg/mL | low microgram/mL MICs | 
CC(C)(O/N=C(\C(=O)N[C@@H]1C(=O)N2C(C(=O)O)=C(C=Cc3ccc(C[N+]4(C)CCc5ccc(O)c(O)c5C4)cc3)CS[C@H]12)c1csc(N)n1)C(=O)O (mixture of isomers) [Compound 442, 2-(4-((E/Z)-2-((6R,7R)-7-((Z)-2-(2-aminothiazol-4-yl)-2-(((2-carboxypropan-2-yl)oxy)imino)acetamido)-2-carboxy-8-oxo-5-thia-1-azabicyclo[4.2.0]oct-2-en-3 yl)vinyl)benzyl)-7,8-dihydroxy-2-methyl-1,2,3,4-tetrahydroisoquinolin-2-ium] | 0.5 µg/mL | 2 µg/mL | 1 µg/mL |  |  | 0.5 µg/mL | > 64 µg/mL |  | 0.25 µg/mL | 0.25 microgram/mL |  | 0.25 µg/mL | 0.13 µg/mL | 0.5 µg/mL | ≤ 0.06 µg/mL | 0.5 µg/mL | ≤ 0.06 µg/mL |  |  | low microgram/mL MICs
